Columns and labels:
[1] = system: Uncultured PBMCs from HLA-A2 donors; assay type: cell-based, human
[2] = system: THP-1 cells pulsed with peptide; test: 51Cr release cytotoxicity assay of peptide specific CD8+ T cells against peptide pulsed THP-1 cells; assay type: cell-based, human; conditions: 50:1 E:T ratio; label = peptide pulsed on targets; STCL after 2 weeks of stimulation
[3] = system: autologous monocyte-derived macrophages infected with M. bovis BCG, M. tuberculosis or rVV expressing Ag85A; assay type: cell-based, human; conditions: label = peptide used to generate the STCL (or pulsed control peptide)
[4] = system: HLA-A2 transgenic C57B1/6 mice; assay type: in vivo; conditions: subcutaneous peptides in IFA

Row | Sequence | mean number of IFN-γ sfc's enumerated from 5×10^5 PBMCs [1] | specific lysis of peptide pulsed THP-1 cells by P48-56 stimulated CD8^+ T cells [2] [%] | specific lysis of peptide pulsed THP-1 cells by P242-250 reactive CD8^+ T cells [2] | recognition and lysis of M. bovis BCG, M. tuberculosis and rVV85A infected macrophages by peptide specific CTLs [3] | peptide specific IFNγ producing T cells in the spleens ([4]; 7 days post second boost) | recognition of peptide with feeder cells from wild type C57B1/6 mice ([4]; 7 days post first boost, lymph node) | IFNγ response to peptide in the lymph node ([4]; 7 days post first boost, autologous feeders)
1 | GLPVEYLQV (listed as Mycobacterium tuberculosis) [P48-56] | 27 | 76 | no significant lysis | able to recognise and lyse | resulted in a P48-56 response |  | 
2 | KLIANNTRV (listed as Mycobacterium tuberculosis) [P242-250] | 22 |  | 79% | able to recognise and lyse |  | not recognised | a response to P242-250 was seen

Reference: patent US20040037837A1 (priority 2000, published 2004)
